Data from patent publication US12202829B2, “Heterocyclic compound” (FIMECS, Inc., priority 2018, dated 2025).
Where a name gives a salt, the structure may show the parent alone.

Biological target: T1, human XIAP_BIR3 domain purified protein (Homo sapiens, UniProt P98170)
T1 construct: purchased R & D
Assay: XIAP binding inhibitory activity, HTRF method with b-Smac ligand
Settings: for inhibition at 3 µM: test compound 3 μM, first symbol of the cell, read-out: XIAP binding inhibition rate when the concentration of the test compound is 3 μM; for IC50: second symbol of the cell, read-out: XIAP binding 50% inhibitory concentration (IC50 value)
Outline: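 HTRF competition: human XIAP BIR3 and C-terminally biotinylated Smac peptide AVPIAQK, each diluted to 90 nM before addition, in HEPES pH 7.5 buffer with NaCl, BSA, Triton X-100. Eu-cryptate anti-His/streptavidin-XL665 detection after ≥4 h at room temperature; inhibition % from 665/615 ratio versus no-compound control.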

T1 sequence (P98170 252-356 limits assumed): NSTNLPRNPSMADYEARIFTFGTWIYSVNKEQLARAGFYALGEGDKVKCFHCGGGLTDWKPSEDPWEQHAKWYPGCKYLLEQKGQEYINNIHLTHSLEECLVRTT

inhibition at 3 µM [%]	IC50 [µM]	SMILES
> 75	–	CN[C@@H](C)C(=O)N[C@H](C(=O)N1CCN(C(=O)c2c(C(=O)NCCOCCOCCN=[N+]=[N-])c3ccc(OC)cc3n2C)CC1)C1CCCCC1 [Example 61, N-(2-(2-(2-Azidoethoxy)ethoxy)ethyl)-2-(4-((S)-2-cyclohexyl-2-((S)-2-(methylamino)propanamido)acetyl)piperazine-1-carbonyl)-6-methoxy-1-methyl-1H-indole-3-carboxamide]
–	3 to 30	CN[C@@H](C)C(=O)N[C@H](C(=O)N1CCN(C(=O)c2c(OCCOCCOCc3ccccc3)c3cc(F)c(F)cc3n2C)CC1)C1CCCCC1 [Example 49, (S)—N—((S)-2-(4-(3-(2-(2-(Benzyloxy)ethoxy)ethoxy)-5,6-difluoro-1-methyl-1H-indole-2-carbonyl)piperazin-1-yl)-1-cyclohexyl-2-oxoethyl)-2-(methylamino)propanamide]
50 to 75	–	CN[C@@H](C)C(=O)N[C@H](C(=O)N1CCN(C(=O)c2c(C(=O)NCCOCCOCC(=O)O)c3ccc(OC)cc3n2C)CC1)C1CCCCC1 [Example 37, 2-(2-(2-(2-(4-((S)-2-Cyclohexyl-2-((S)-2-(methylamino)propanamido)acetyl)piperazine-1-carbonyl)-6-methoxy-1-methyl-1H-indole-3-carboxamido)ethoxy)ethoxy)acetic Acid Hydrochloride]
> 75	–	CN[C@@H](C)C(=O)N[C@H](C(=O)N1CCN(C(=O)c2c(C(=O)NCC(=O)OC)c3ccc(OC)cc3n2C)CC1)C1CCCCC1 [Example 27, Methyl (2-(4-((S)-2-cyclohexyl-2-((S)-2-(methylamino)propanamido)acetyl)piperazine-1-carbonyl)-6-methoxy-1-methyl-1H-indole-3-carbonyl)glycinate Hydrochloride]
> 75	–	CN[C@@H](C)C(=O)N[C@H](C(=O)N1CCN(C(=O)c2c(/C=C/C(=O)OC)c3cc(F)ccc3n2C)CC1)C1CCCCC1 [Example 43, Methyl (E)-3-(2-(4-((S)-2-cyclohexyl-2-((S)-2-(methylamino)propanamido)acetyl)piperazine-1-carbonyl)-5-fluoro-1-methyl-1H-indol-3-yl)acrylate Hydrochloride]

Further lines, the compound ahead of its results:

SMILES	inhibition at 3 µM [%]	IC50 [µM]
CN[C@@H](C)C(=O)N[C@H](C(=O)N1CCN(C(=O)c2c(C=O)c3cc(F)ccc3n2C)CC1)C1CCCCC1 [Example 35, (S)—N—((S)-1-Cyclohexyl-2-(4-(5-fluoro-3-formyl-1-methyl-1H-indole-2-carbonyl)piperazin-1-yl)-2-oxoethyl)-2-(methylamino)propanamide Hydrochloride]	> 75	–
CN[C@@H](C)C(=O)N[C@@H](C(=O)N1CCN(C(=O)c2cc3cc(F)c(F)cc3n2CCOCCOCc2ccccc2)CC1)C1CCCCC1 [Example 46, (S)—N—((R)-2-(4-(1-(2-(2-(Benzyloxy)ethoxy)ethyl)-5,6-difluoro-1H-indole-2-carbonyl)piperazin-1-yl)-1-cyclohexyl-2-oxoethyl)-2-(methylamino)propanamide Hydrochloride]	–	3 to 30
C[C@@H]1CN(CC(=O)N2CCN(C(=O)c3cc4cc(F)c(F)cc4n3C)C[C@H]2C)[C@@H](COCCOCCOCCO)CN1 [Example 64, 1-((R)-4-(5,6-Difluoro-1-methyl-1H-indole-2-carbonyl)-2-methylpiperazin-1-yl)-2-((2R,5R)-2-(2-(2-(2-hydroxyethoxy)ethoxy)ethoxymethyl)-5-methylpiperazin-1-yl)ethan-1-one]	–	3 to 30
CN[C@@H](C)C(=O)N[C@H](C(=O)N1CCN(C(=O)c2ccc3c(C)n(C)nc3c2)CC1)C1CCCCC1 [Example 23, (S)-N-((S)-1-cyclohexyl-2-(4-(2,3-dimethyl-2H-indazole-6-carbonyl)piperazin-1-yl)-2-oxoethyl)-2-(methylamino)propanamide]	> 25	–
CN[C@@H](C)C(=O)N[C@H](C(=O)N1CCN(C(=O)c2c(C)c3ccccc3n2CCOC)CC1)C1CCCCC1 [Example 51, (S)—N—((S)-1-Cyclohexyl-2-(4-(1-(2-methoxyethyl)-3-methyl-1H-indole-2-carbonyl)piperazin-1-yl)-2-oxoethyl)-2-(methylamino)propanamide]	–	3 to 30
CN[C@@H](C)C(=O)N[C@H](C(=O)N1CCN(C(=O)c2c(C(=O)NCCOCCOCCOc3ccc(NC(=O)C[C@@H]4N=C(c5ccc(Cl)cc5)c5c(sc(C)c5C)-n5c(C)nnc54)cc3)c3cc(F)c(F)cc3n2C)CC1)C1CCCCC1 [Example 78, N-(2-(2-(2-(4-(2-((S)-4-(4-Chlorophenyl)-2,3,9-trimethyl-6H-thieno[3,2-f][1,2,4]triazolo[4,3-a][1,4]diazepin-6-yl)acetamido)phenoxy)ethoxy)ethoxy)ethyl)-2-(4-((S)-2-cyclohexyl-2-((S)-2-(methylamino)propanamido)acetyl)piperazine-1-carbonyl)-5,6-difluoro-1-methyl-1H-indole-3-carboxamide hydrochloride]	–	0.3 to 3
CN[C@@H](C)C(=O)N[C@H](C(=O)N1CCN(C(=O)c2c(C(=O)NCCOCCOCCOCCN3CCN(c4cc(Nc5ncc(C(=O)Nc6c(C)cccc6Cl)s5)nc(C)n4)CC3)c3cc(F)c(F)cc3n2C)CC1)C1CCCCC1 [Example 82, N-(2-Chloro-6-methylphenyl)-2-((6-(4-(1-(2-(4-((S)-2-cyclohexyl-2-((S)-2-(methylamino)propanamido)acetyl)piperazine-1-carbonyl)-5,6-difluoro-1-methyl-1H-indol-3-yl)-1-oxo-5,8,11-trioxa-2-azatridecan-13-yl)piperazin-1-yl)-2-methylpyrimidin-4-yl)amino)thiazole-5-carboxamide Trifluoroacetate]	–	0.3 to 3
CCOc1cc(C(=O)N2CCN(C(=O)[C@@H](NC(=O)[C@H](C)NC)C3CCCCC3)CC2)n(C)n1 [Example 12, (S)-N-((S)-1-cyclohexyl-2-(4-(3-ethoxy-1-methyl-1H-pyrazole-5-carbonyl)piperazin-1-yl)-2-oxoethyl)-2-(methylamino)propanamide]	> 25	–
